Laboratory results: patent publication US7951954B2, “Bezothiazol derivatives as Beta2 adrenoreceptor agonists” (AstraZeneca AB, priority 2006, dated 2011)
Where a name gives a salt, the structure may show the parent alone. Read-outs that look alike come from different tables or passages of the source.

How the values were obtained:
[1] = target: T1, recombinant human α1D receptor (Homo sapiens, UniProt P25100); test: Adrenergic α1D selectivity assay, [3H]-prazosin binding to HEK293 membranes; settings: inhibition of [3H]-prazosin binding, HEK293 membranes with recombinant human α1D; read-out: α1D pEC50 (converted)
T1 construct: expressed in transfected cells; host or cells: HEK293
T1 sequence (P25100 1-572): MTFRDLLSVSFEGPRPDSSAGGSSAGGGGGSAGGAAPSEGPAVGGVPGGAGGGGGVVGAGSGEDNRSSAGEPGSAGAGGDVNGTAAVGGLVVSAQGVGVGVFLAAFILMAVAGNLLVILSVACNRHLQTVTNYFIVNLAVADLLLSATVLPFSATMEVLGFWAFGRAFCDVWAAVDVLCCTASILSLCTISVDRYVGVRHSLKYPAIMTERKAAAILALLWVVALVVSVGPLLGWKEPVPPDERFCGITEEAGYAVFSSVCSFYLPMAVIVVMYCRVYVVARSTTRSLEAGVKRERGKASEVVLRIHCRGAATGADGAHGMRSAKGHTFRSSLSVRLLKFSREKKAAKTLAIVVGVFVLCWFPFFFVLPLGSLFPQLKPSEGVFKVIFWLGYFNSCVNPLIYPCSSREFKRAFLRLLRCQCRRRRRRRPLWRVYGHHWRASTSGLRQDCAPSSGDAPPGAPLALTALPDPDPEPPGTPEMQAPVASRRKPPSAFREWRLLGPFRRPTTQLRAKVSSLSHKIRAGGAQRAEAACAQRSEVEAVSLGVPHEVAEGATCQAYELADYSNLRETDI
Experimental: (§1) These were diluted in Assay Buffer (50 mM HEPES, 1 mM EDTA, 0.1% gelatin, pH 7.4) to provide a final concentration of membranes that gave a clear window between maximum and minimum specific binding.
Assays were performed in U-bottomed 96-well polypropylene plates. […] For each assay plate 8 replicates were obtained for [^3H]-prazosin binding in the presence of 10 μL vehicle (10% (v/v) DMSO in Assay Buffer; defining maximum binding) or 10 μL BMY7378 (10 μM final concentration; defining non-specific binding (NSB)). Membranes were then added to achieve a final volume of 100 μL. The plates were incubated for 2 hours at room temperature and then filtered onto PEI coated GF/B filter plates, pre-soaked for 1 hour in Assay Buffer, using a 96-well plate Tomtec cell harvester. Five washes with 250 μL wash buffer (50 mM HEPES, 1 mM EDTA, pH 7.4) were performed at 4° C. to remove unbound radioactivity. The plates were dried then sealed from underneath using Packard plate sealers and MicroScint-O (50 μL) was added to each well. The plates were sealed (TopSeal A) and filter-bound radioactivity was measured with a scintillation counter (TopCount, Packard BioScience) using a 3-minute counting protocol.
(§2) Total specific binding (B0) was determined by subtracting the mean NSB from the mean maximum binding. NSB values were also subtracted from values from all other wells.

[2] = target: T2, recombinant human adrenergic beta 1 receptors (Homo sapiens, UniProt P08588); test: Adrenergic β1 selectivity assay, [125I]-Iodocyanopindolol binding to membranes; settings: inhibition of [125I]-Iodocyanopindolol binding, read-out: β1 pEC50 (converted)
T2 construct: purchased Euroscreen
T2 sequence (P08588 whole entry): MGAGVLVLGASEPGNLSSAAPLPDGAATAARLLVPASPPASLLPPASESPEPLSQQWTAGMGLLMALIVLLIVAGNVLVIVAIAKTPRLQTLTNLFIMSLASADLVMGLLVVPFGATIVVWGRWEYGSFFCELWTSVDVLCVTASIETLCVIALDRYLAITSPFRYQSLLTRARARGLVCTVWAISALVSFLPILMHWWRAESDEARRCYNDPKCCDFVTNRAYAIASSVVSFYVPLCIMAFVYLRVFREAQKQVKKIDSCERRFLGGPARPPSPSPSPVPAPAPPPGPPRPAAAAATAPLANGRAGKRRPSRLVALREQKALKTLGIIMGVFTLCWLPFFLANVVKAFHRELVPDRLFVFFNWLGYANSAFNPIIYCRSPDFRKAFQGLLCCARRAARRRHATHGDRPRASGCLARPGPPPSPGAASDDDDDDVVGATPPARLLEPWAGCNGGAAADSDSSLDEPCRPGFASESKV
Experimental: as §1, with “Membranes containing recombinant human adrenergic beta 1 receptors were obtained from Euroscreen. These” for “These”, “EDTA, 120 mM NaCl,” for “EDTA,”
Assays were performed in U-bottomed 96-well polypropylene plates. 10 μL [^125I]-Iodocyanopindolol (0.036 nM final concentration) and 10 μL of test compound (10× final concentration) were added to each test well. For each assay plate 8 replicates were obtained for [^125I]-Iodocyanopindolol binding in the presence of 10 μL vehicle (10% (v/v) DMSO in Assay Buffer; defining maximum binding) or 10 μL Propranolol (10 μM final concentration; defining non-specific binding (NSB)). Membranes were then added to achieve a final volume of 100 μL. The plates were incubated for 2 hours at room temperature and then filtered onto PEI coated GF/B filter plates, pre-soaked for 1 hour in Assay Buffer, using a 96-well plate Tomtec cell harvester. Five washes with 250 μL wash buffer (50 mM HEPES, 1 mM EDTA, 120 mM NaCl, pH 7.4) were performed at 4° C. to remove unbound radioactivity. The plates were dried then sealed from underneath using Packard plate sealers and MicroScint-O (50 μL) was added to each well. The plates were sealed (TopSeal A) and filter-bound radioactivity was measured with a scintillation counter (TopCount, Packard BioScience) using a 3-minute counting protocol.
as §2

Adrenergic β2 = target: T3, Adrenergic β2 (Homo sapiens, UniProt P07550); test: Adrenergic β2 mediated cAMP production in H292 cells (AlphaScreen cAMP detection); type: cell-based; settings: for EC50: cAMP production in H292 cells, 300 μM rolipram, 10 minutes with compound, read-out: β2 pEC50 (converted)
T3 construct: endogenous in cells; host or cells: H292 cells
T3 sequence (P07550 whole entry): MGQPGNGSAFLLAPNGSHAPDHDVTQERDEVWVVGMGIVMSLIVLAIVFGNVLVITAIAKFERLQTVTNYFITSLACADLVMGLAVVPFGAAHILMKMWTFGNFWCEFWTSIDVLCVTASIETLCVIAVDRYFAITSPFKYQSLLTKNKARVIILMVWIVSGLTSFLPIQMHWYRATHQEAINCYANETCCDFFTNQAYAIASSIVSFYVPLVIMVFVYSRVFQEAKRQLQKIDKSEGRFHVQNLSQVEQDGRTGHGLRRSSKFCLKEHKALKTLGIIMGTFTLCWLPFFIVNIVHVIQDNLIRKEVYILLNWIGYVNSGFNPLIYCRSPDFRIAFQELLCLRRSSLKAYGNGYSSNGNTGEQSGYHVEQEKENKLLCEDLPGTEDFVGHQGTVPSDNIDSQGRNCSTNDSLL
Experimental: Adrenergic β2 Mediated cAMP Production
H292 cells were grown in RPMI (Roswell Park Memorial Institute) medium containing, 10% (v/v) FBS (foetal bovine serum) and 2 mM L-glutamine. Cells were grown in 225 cm2 flasks containing 25 mL media in a humidified incubator at 37° C., 5% CO2. Cells were harvested from the flask and passaged at a 1 in 10 dilution once per week.
The media from flasks containing H292 cells was removed, rinsed with 10 mL PBS phosphate buffered saline) and replaced with 10 mL Accutase™ cell detachment solution. Flasks were incubated for 15 minutes in a humidified incubator at 37° C., 5% CO2. The cell suspension was counted and the cells re-suspended in RPMI media (containing 10% (v/v) FBS and 2 mM L-glutamine) at 0.05×10^6 cells per mL. 5000 cells in 100 μL were added to each well of a tissue-culture-treated 96-well plate and the cells incubated overnight in a humidified incubator at 37° C., 5% CO2. The culture media was removed, washed twice with 100 μL assay buffer and replaced with 50 μL assay buffer. Cells were rested at room temperature for 20 minutes after which time 25 μL of rolipram (1.2 mM made up in assay buffer containing 2.4% (v/v) dimethylsulphoxide) was added. Cells were incubated with rolipram for 10 minutes after which time test compounds (made up as ×4 concentrated stocks in assay buffer containing 4% (v/v) dimethylsulphoxide) were added and the cells were incubated for 10 minutes at room temperature. Final rolipram concentration in the assay was 300 μM and final vehicle concentration was 1.6% (v/v) dimethylsulphoxide. The reaction was stopped by removing supernatants, washing once with 100 μL assay buffer and replacing with 50 μL lysis buffer. The cell monolayer was frozen at −80° C. for 30 minutes (or overnight).
The concentration of cAMP (cyclic adenosine monophosphate) in the cell lysate was determined using the AlphaScreen™ methodology. The frozen cell plate was thawed for 20 minutes on a plate shaker then 10 μL of the cell lysate was transferred to a 96-well white plate. 40 μL of mixed AlphaScreen™ detection beads (containing equal volumes of donor beads (pre-incubated with biotinylated cAMP in the dark for 30 minutes) and acceptor beads), was added to each well and the plate incubated at room temperature for 10 hours in the dark. The AlphaScreen™ signal was measured using an EnVision spectrophotometer (Perkin-Elmer Inc.) with the recommended manufacturer's settings. cAMP concentrations were determined by reference to a calibration curve determined in the same experiment using standard cAMP concentrations (made up in lysis buffer in a 96-well tissue-culture-treated plate and frozen/thawed alongside the test samples) and detected using the same protocol. Concentration response curves for agonists were constructed to determine both the pEC50 and Intrinsic Activity.

[3] = fraction relative to the maximum activity determined for formoterol in each experiment, H292 cells, cAMP

EC50 (Adrenergic β2)	Intrinsic Activity (Adrenergic β2; [3])	Structure (SMILES)	EC50 [1]	EC50 [2]	Intrinsic Activity (Adrenergic β2)
–	–	O=c1[nH]c2c(O)ccc([C@@H](O)CNCCc3cccc(CNCc4ccccc4Cl)c3)c2s1 [Example 3, 7-[2-(2-{3-[(2-Chloro-benzylamino)-methyl]-phenyl}-ethylamino)-1R-hydroxy-ethyl]-4-hydroxy-3H-benzothiazol-2-one bis-trifluoroacetate salt]	158 nM	10 nM	0.9
1 nM	0.9	O=c1[nH]c2c(O)ccc([C@@H](O)CNCCc3cccc(CN4CCOCC4)c3)c2s1 [Example 72, 4-Hydroxy-7-{1R-hydroxy-2-[2-(3-morpholin-4-ylmethyl-phenyl)-ethylamino]-ethyl}-3H-benzothiazol-2-one bis-hydrochloride salt]	398 nM	100 nM	–
2.51 nM	0.8	O=c1[nH]c2c(O)ccc([C@@H](O)CNCCc3cccc(CNCCc4cccc[n+]4[O-])c3)c2s1 [Example 40, 4-Hydroxy-7-{1R-hydroxy-2-[2-(3-{[2-(1-oxy-pyridin-2-yl)-ethylamino]-methyl}-phenyl)-ethylamino]-ethyl}-3H-benzothiazol-2-one bis-trifluoroacetate salt]	100 nM	39.8 nM	–
0.631 nM	0.9	CC(C)NCc1ccc(CCNC[C@H](O)c2ccc(O)c3[nH]c(=O)sc23)cc1 [Example 53, 4-Hydroxy-7-{1R-hydroxy-2-[2-(4-isopropylaminomethyl)phenyl]ethylamino}-ethyl)-3H-benzothiazol-2-one bis-trifluoroacetate salt]	398 nM	251 nM	–
–	–	O=c1[nH]c2c(O)ccc([C@@H](O)CNCCc3ccc(CNCCc4ccccn4)cc3)c2s1 [Example 22, 4-Hydroxy-7-[1R-hydroxy-2-(2-{4-[(2-(2-pyridyl)ethylamino)methyl]phenyl}-ethylamino)ethyl]-3H-benzothiazol-2-one tris-trifluoroacetate salt]	25.1 nM	794 nM	1.0
–	–	COc1ccccc1CNCCc1cccc(CCNC[C@H](O)c2ccc(O)c3[nH]c(=O)sc23)c1 [Example 45, 4-Hydroxy-7-[1R-hydroxy-2-(2-{3-[2-(2-methoxy-benzylamino)-ethyl]-phenyl}-ethylamino)-ethyl]-3H-benzothiazol-2-one bis-hydrochloride salt]	25.1 nM	63.1 nM	1.0
0.794 nM	0.9	O=c1[nH]c2c(O)ccc([C@@H](O)CNCCc3cccc(CN4CCCCCC4)c3)c2s1 [Example 71, 7-{2-[2-(3-Azepan-1-ylmethyl-phenyl)-ethylamino]-1R-hydroxy-ethyl}-4-hydroxy-3H-benzothiazol-2-one bis-hydrochloride salt-]	31.6 nM	398 nM	–
–	–	COc1ccccc1CNCc1cccc(CCNC[C@H](O)c2ccc(O)c3[nH]c(=O)sc23)c1 [Example 36, 4-Hydroxy-7-[1R-hydroxy-2-(2-{3-[(2-methoxy-benzylamino)-methyl]-phenyl}-ethylamino)-ethyl]-3H-benzothiazol-2-one bis-trifluoroacetate salt]	200 nM	50.1 nM	0.8
0.316 nM	1.0	O=c1[nH]c2c(O)ccc([C@@H](O)CNCCc3cccc(CN[C@@H]4C[C@H]4c4ccc(F)cc4)c3)c2s1 [Example 10, 7-{2-[2-(3-{[2S-(4-Fluoro-phenyl)-cycloprop-1R-ylamino]-methyl}-phenyl)-ethylamino]-1R-hydroxy-ethyl}-4-hydroxy-3H-benzothiazol-2-one bis-trifluoroacetate salt]	316 nM	200 nM	–
–	–	O=c1[nH]c2c(O)ccc([C@@H](O)CNCCc3cccc(CNCc4ccccn4)c3)c2s1 [Example 61, 4-Hydroxy-7-{1R-hydroxy-2-[2-(3-{[(pyridin-2-ylmethyl)-amino]-methyl}-phenyl)-ethylamino]-ethyl}-3H-benzothiazol-2-one bis-hydrochloride salt]	316 nM	79.4 nM	0.9

Structure (SMILES)	EC50 (Adrenergic β2)	Intrinsic Activity (Adrenergic β2; [3])	EC50 [1]	EC50 [2]	Intrinsic Activity (Adrenergic β2)
O=c1[nH]c2c(O)ccc([C@@H](O)CNCCc3cccc(CNCCc4c(Cl)cccc4Cl)c3)c2s1 [Example 1, 7-{2-[2-(3-{[2-(2,6-Dichloro-phenyl)-ethylamino]-methyl}-phenyl)-ethylamino]-1R-hydroxy-ethyl}-4-hydroxy-3H-benzothiazol-2-one bis-trifluoroacetate salt]	–	0.8	63.1 nM	12.6 nM	–
COCCNCc1cccc(CCNC[C@H](O)c2ccc(O)c3[nH]c(=O)sc23)c1 [Example 13, 4-Hydroxy-7-[1R-hydroxy-2-(2-{3-[(2-methoxy-ethylamino)-methyl]-phenyl}-ethylamino)-ethyl]-3H-benzothiazol-2-one di-hydrochloride salt]	2 nM	–	501 nM	158 nM	1.0
